Among the data in patent US9512120B2, “Microbicidally active imidazopyridine derivatives” (Syngenta Participations AG, priority 2013, dated 2016) are inhibition, pest or weed control and melting point values, retold here.

Data set [1] relates to Gaeumannomyces graminis. Put plainly: Gaeumannomyces graminis / liquid culture (take-all of cereals). The format is cell-based. The note with it: PDB, 24° C., 4-5 days after application, read-out: control of Gaeumannomyces graminis (inhibition of growth, photometric). In outline: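 Growth inhibition, measured by photometry 4-5 days post-application at 24 °C, of fungal mycelial fragments in PDB broth. Test compound applied as DMSO solution at 200 ppm.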

Data set [2] concerns Pyrenophora teres. Nature of the data set: Pyrenophora teres / barley / leaf disc preventative (net blotch). The format is in vivo. The note with it: foliar, barley leaf segments cv Hasso, inoculated two days after application, assessed 5-7 days after application, read-out: control of Pyrenophora teres (disease control compared to untreated). The gist of the method: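 Preventative leaf-disc test: 200 ppm spray, then spore inoculation after two days on barley cv Hasso segments. Incubation 20 °C, 65% relative humidity, 12 h light/12 h dark; efficacy rated against untreated checks at 5-7 days post-application.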

For data set [3], the system named is Thanatephorus cucumeris (Rhizoctonia solani). Put plainly: Thanatephorus cucumeris (Rhizoctonia solani) / liquid culture (foot rot, damping-off). The format is cell-based. The settings on record: PDB, 24° C., 3-4 days after application, read-out: control of Thanatephorus cucumeris (inhibition of growth, photometric). In outline: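 At 200 ppm, compounds in DMSO were combined with fresh liquid-culture mycelia in PDB and kept at 24° C; photometric measurement of growth inhibition after 3-4 days.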

The test system of data set [4] is Glomerella lagenarium (Colletotrichum lagenarium). Nature of the data set: Glomerella lagenarium (Colletotrichum lagenarium) / liquid culture (anthracnose). It is filed as cell-based. The settings on record: Colletotrichum orbiculare, PDB, 24° C., 3-4 days after application, read-out: control of Glomerella lagenarium (inhibition of growth, photometric). The procedure:
Glomerella lagenarium (Colletotrichum lagenarium)/Liquid Culture (Anthracnose): Conidia of the fungus from cryogenic storage were directly mixed into nutrient broth (PDB potato dextrose broth). After placing a DMSO solution of test compound into a 96-well microtiter plate at an application rate of 200 ppm, the nutrient broth containing the fungal spores was added. The test plates were incubated at 24° C. and the inhibition of growth is measured photometrically 3-4 days after application.

In data set [5] the test system is Botryotinia fuckeliana (Botrytis cinerea). Nature of the data set: Botryotinia fuckeliana (Botrytis cinerea) / liquid culture (gray mould). It is filed as cell-based. The settings on record: Vogels broth, 24° C., 3-4 days after application, read-out: control of Botryotinia fuckeliana (inhibition of growth, photometric). In outline: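 Test compound was applied at 200 ppm in DMSO, then Vogels nutrient broth containing cryo-stored B. cinerea conidia was added. Photometric growth-inhibition reading followed after 3-4 days at 24 °C.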

Data set [6] concerns Mycosphaerella graminicola (Septoria tritici). Nature of the data set: Mycosphaerella graminicola (Septoria tritici) / liquid culture (Septoria blotch). The format is cell-based. The settings on record: Zymoseptoria tritici, PDB, 24° C., 4-5 days after application, read-out: control of Mycosphaerella graminicola (inhibition of growth, photometric). In outline: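 Growth inhibition was read photometrically after 4–5 days at 24 °C. The test compound was applied at 200 ppm from DMSO solution, then PDB broth seeded with conidia taken straight from cryogenic storage was added.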

Data set [7] has as its system Mycosphaerella arachidis (Cercospora arachidicola). Nature of the data set: Mycosphaerella arachidis (Cercospora arachidicola) / liquid culture (early leaf spot). The format is cell-based. The settings on record: PDB, 24° C., 4-5 days after application, read-out: control of Mycosphaerella arachidis (inhibition of growth, photometric). How it is done: Mycosphaerella Arachidis (Cercospora arachidicola)/Liquid Culture (Early Leaf Spot): Conidia of the fungus from cryogenic storage were directly mixed into nutrient broth (PDB potato dextrose broth). After placing a DMSO solution of test compound into a 96-well microtiter plate at an application rate of 200 ppm, the nutrient broth containing the fungal spores was added. The test plates are incubated at 24° C. and the inhibition of growth was determined photometrically 4-5 days after application.

Data set [8] has as its system Phaeosphaeria nodorum (Septoria nodorum). Put plainly: Phaeosphaeria nodorum (Septoria nodorum) / wheat / leaf disc preventative (glume blotch). The format is in vivo. The note with it: Parastagonospora nodorum, foliar, wheat leaf segments cv Kanzler, inoculated 2 days after application, assessed 5-7 days after application, read-out: control of Phaeosphaeria nodorum (percent disease control compared to untreated). The procedure:
Phaeosphaeria nodorum (Septoria nodorum)/Wheat/Leaf Disc Preventative (Glume Blotch): Wheat leaf segments cv Kanzler were placed on agar in a 24-well plate and sprayed with formulated test compound diluted in water at an application rate of 200 ppm. The leaf disks are inoculated with a spore suspension of the fungus 2 days after application. The inoculated test leaf disks are incubated at 20° C. and 75% relative humidity under a light regime of 12/12 h (light/dark) in a climate cabinet and the activity of a compound is assessed as percent disease control compared to untreated when an appropriate level of disease damage appears in untreated check leaf disks (5-7 days after application).

Data set [9] relates to Puccinia recondita f. sp. Tritici. Put plainly: Puccinia recondita f. sp. tritici / wheat / leaf disc preventative (brown rust). It is filed as in vivo. The settings on record: foliar, wheat leaf segments cv Kanzler, inoculated 1 day after application, assessed 7-9 days after application, read-out: control of Puccinia recondita f. sp. Tritici (percent disease control compared to untreated). In outline:
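Preventative test: percent disease control relative to untreated leaf segments was assessed 7-9 days post-application. Wheat (cv Kanzler) leaf discs were treated at 200 ppm and spore-inoculated 1 day afterwards. Discs were held at 19° C and 75% relative humidity under a 12/12 h light cycle.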

Data set [10] relates to Sclerotinia sclerotiorum. Put plainly: Sclerotinia sclerotiorum liquid culture (cottony rot / white mold). The settings on record: PDB, 24° C., 3-4 days after application, read-out: control of Sclerotinia sclerotiorum (inhibition of growth, photometric). The format is cell-based. How it is done: Sclerotinia sclerotiorum (Cottony Rot/White Mold): Mycelia fragments of a newly grown liquid culture of the fungus were directly mixed into nutrient broth (PDB potato dextrose broth). After placing a (DMSO) solution of test compound into a microtiter plate (96-well format) the nutrient broth containing the fungal material was added. The test plates are incubated at 24° C. and the inhibition of growth was determined photometrically 3-4 days after application.

By inhibition is commonly meant the share of the control response that was lost under treatment. For orientation: melting point means the temperature of the solid-liquid transition. For `CCn1c(-n2ncnc2N)nc2cncc(C(C)=NOCc3ccccn3)c21` [Compound 142], the melting point was 138 to 149 °C. Further, in [1], the inhibition at 20 ppm was not below 80%. The pest or weed control at 200 ppm in data set [2] is not below 80%. Further, the inhibition at 20 ppm in [3] was not below 80%.

Take `Nc1ncnn1-c1nc2cncc(Br)c2n1C1CCCCC1` [Compound 112, 2-(7-bromo-1-cyclohexylimidazo[4,5-c]pyridin-2-yl)-1,2,4-triazol-3-amine]: the melting point was 217 to 218 °C. In addition, in data set [4], the inhibition at 20 ppm was not below 80%.

Turning to `CCn1c(-n2ncnc2N)nc2cncc(-c3ccc(F)cc3)c21` [Compound 29, 2-[1-ethyl-7-(4-fluorophenyl)imidazo[4,5-c]pyridin-2-yl]-1,2,4-triazol-3-amine], the melting point lay in the range of 275 to 277 °C. The inhibition at 20 ppm in [5] is not below 80%. For the same compound, the inhibition at 20 ppm in data set [1] is not below 80%. Besides, the inhibition at 20 ppm in [6] is not below 80%. Moreover, in [3], the inhibition at 20 ppm was not below 80%.

The compound `CCn1c(-n2ncnc2N)nc2cncc(C(C)O)c21` (stereo not drawn) [Example P8, 1-[2-(5-amino-1,2,4-triazol-1-yl)-1-ethyl-imidazo[4,5-c]pyridin-7-yl]ethanol] gave a melting point of 220 to 226 °C.

In turn, `Cn1c(-n2ncnc2N)nc2cnccc21` [Compound 14, 2-(1-methylimidazo[4,5-c]pyridin-2-yl)-1,2,4-triazol-3-amine] yielded a melting point of 240 to 244 °C. For the same compound, the inhibition at 20 ppm in [1] is not below 80%. Moreover, the pest or weed control at 200 ppm in [2] was not below 80%.

Turning to `C=C(Cl)CO/N=C(\C)c1cncc2nc(-n3ncnc3N)n(CC)c12` [Compound 152], the inhibition at 20 ppm in data set [6], in data set [7], in [3] and in [4] was not below 80% throughout. The pest or weed control at 200 ppm in [2] was not below 80%.

Regarding `CCc1nc(N)n(-c2nc3cnccc3n2C2CCCCC2)n1` [Compound 7, 2-(1-cyclohexylimidazo[4,5-c]pyridin-2-yl)-5-ethyl-1,2,4-triazol-3-amine], the melting point was 198 to 203 °C. Moreover, the inhibition at 20 ppm in [4] was not below 80%.

`CCn1c(-n2ncnc2N)nc2cncc(-c3ccccc3C)c21` [Compound 72, 2-[1-ethyl-7-(2-methylphenyl)imidazo[4,5-c]pyridin-2-yl]-1,2,4-triazol-3-amine]: the pest or weed control at 200 ppm in data set [8], in data set [2] and in [9] was not below 80% each time. In addition, the inhibition at 20 ppm in [5], in data set [6], in data set [7] and in data set [3] was not below 80% throughout.

As to `Cc1nc(N)n(-c2nc3cnccc3n2C2CCCCC2)n1` [Compound 5, 2-(1-cyclohexylimidazo[4,5-c]pyridin-2-yl)-5-methyl-1,2,4-triazol-3-amine], the melting point lay within 212 to 215 °C. In data set [1], the inhibition at 20 ppm was not below 80%. The pest or weed control at 200 ppm in [2] is not below 80%.

`CCCn1c(-n2ncnc2N)nc2cncc(Br)c21` [Compound 110, 2-(7-bromo-1-propylimidazo[4,5-c]pyridin-2-yl)-1,2,4-triazol-3-amine] yielded a melting point of 207 to 208 °C. Moreover, the inhibition at 20 ppm in data set [5] was not below 80%. Further, the inhibition at 20 ppm in data set [6] is not below 80%. For the same compound, the pest or weed control at 200 ppm in data set [2] is not below 80%. Also, the inhibition at 20 ppm in data set [3] was not below 80%. Besides, the pest or weed control at 200 ppm in [9] was not below 80%.

In turn, `CCn1c(-n2ncnc2N)nc2cncc(C=Cc3ccccc3)c21` [Compound 21, 2-[1-ethyl-7-(2-phenylethenyl)imidazo[4,5-c]pyridin-2-yl]-1,2,4-triazol-3-amine] yielded a melting point of 247 to 252 °C. Besides, in data set [1], the inhibition at 20 ppm was not below 80%. Also, the inhibition at 20 ppm in [6] is not below 80%. Moreover, in data set [3], the inhibition at 20 ppm was not below 80%.

`Nc1nc(Br)nn1-c1nc2cnccc2n1C1CCCCC1` [Compound 20, 5-bromo-2-(1-cyclohexylimidazo[4,5-c]pyridin-2-yl)-1,2,4-triazol-3-amine] had a melting point of 217 to 221 °C. Further, in data set [4], the inhibition at 20 ppm is not below 80%.

For `CCCC=Cc1cncc2nc(-n3ncnc3N)n(CC)c12` [Compound 68, 2-(1-ethyl-7-pent-1-enylimidazo[4,5-c]pyridin-2-yl)-1,2,4-triazol-3-amine], the pest or weed control at 200 ppm in [8], in data set [2] and in [9] was not below 80% in each case. In addition, the inhibition at 20 ppm in [5], in [10], in data set [1], in data set [6], in data set [7] and in data set [3] was not below 80% in each case.

Take `Nc1nc(C2CC2)nn1-c1nc2cnccc2n1C1CCCCC1` [Compound 8, 2-(1-cyclohexylimidazo[4,5-c]pyridin-2-yl)-5-cyclopropyl-1,2,4-triazol-3-amine]: the melting point was 196 to 199 °C. In data set [4], the inhibition at 20 ppm is not below 80%.

Compound `Nc1nc(-c2ccccc2)nn1-c1nc2cnccc2n1C1CCCCC1` [Example P1, 2-(1-cyclohexylimidazo[4,5-c]pyridin-2-yl)-5-phenyl-1,2,4-triazol-3-amine] yielded a melting point of 222 to 225 °C.

The compound `CCn1c(-n2ncnc2N)nc2cncc(C(=O)C=Cc3ccc(F)cc3)c21` [Compound 108, 1-[2-(5-amino-1,2,4-triazol-1-yl)-1-ethylimidazo[4,5-c]pyridin-7-yl]-3-(4-fluorophenyl)prop-2-en-1-one] yielded a melting point of 205 to 209 °C. Besides, the inhibition at 20 ppm in data set [1] is not below 80%. Moreover, the inhibition at 20 ppm in [6] is not below 80%. Moreover, the pest or weed control at 200 ppm in [2] is not below 80%. For the same compound, the inhibition at 20 ppm in [3] was not below 80%.

`CCn1c(-n2ncnc2N)nc2c(Cl)ncc(-c3ccccc3C)c21` [Example P7, 2-[4-chloro-1-ethyl-7-(o-tolyl)imidazo[4,5-c]pyridin-2-yl]-1,2,4-triazol-3-amine]: the melting point fell in the range of 274 to 278 °C.

Compound `C=CCn1c(-n2ncnc2N)nc2cnccc21` [Compound 17, 2-(1-prop-2-enylimidazo[4,5-c]pyridin-2-yl)-1,2,4-triazol-3-amine] returned a melting point of 215 to 216 °C. Further, the inhibition at 20 ppm in data set [5] was not below 80%. In addition, the inhibition at 20 ppm in data set [1] was not below 80%. In addition, the inhibition at 20 ppm in [6] was not below 80%. Besides, in data set [2], the pest or weed control at 200 ppm is not below 80%. For the same compound, the inhibition at 20 ppm in data set [3] was not below 80%. Besides, in data set [9], the pest or weed control at 200 ppm is not below 80%.
